# Patent US5747456A, “Continuous low-dose administration of parathyroid hormone or its agonist” (Beth Israel Deaconess Medical Center, priority 1996, dated 1998)
# Non-standard residues stand in square brackets, D forms with d. Residues, ends and D or L forms follow the SMILES beside them. Nle = CCCC[C@H](N)C(=O)O
# Key:
# [1] = target: T1, PTH/PTHrP receptor in SaOS-2 B10 cells (Homo sapiens, UniProt Q03431); test: Competition binding of mono-125I-[Nle8,18,Tyr34(3-I125)]bPTH1-34 NH2 to SaOS-2 B10 cells; settings: 2 hrs at room temperature, read-out: IC50 (half maximal inhibition of binding of mono-125I-[Nle8,18,Tyr34(3-I125)]bPTH1-34 NH2)
# T1 construct: endogenous in cells; host or cells: SaOS-2 B10 cells (subclone of the human osteosarcoma line SaOS-2)
# T1 sequence (Q03431 27-593): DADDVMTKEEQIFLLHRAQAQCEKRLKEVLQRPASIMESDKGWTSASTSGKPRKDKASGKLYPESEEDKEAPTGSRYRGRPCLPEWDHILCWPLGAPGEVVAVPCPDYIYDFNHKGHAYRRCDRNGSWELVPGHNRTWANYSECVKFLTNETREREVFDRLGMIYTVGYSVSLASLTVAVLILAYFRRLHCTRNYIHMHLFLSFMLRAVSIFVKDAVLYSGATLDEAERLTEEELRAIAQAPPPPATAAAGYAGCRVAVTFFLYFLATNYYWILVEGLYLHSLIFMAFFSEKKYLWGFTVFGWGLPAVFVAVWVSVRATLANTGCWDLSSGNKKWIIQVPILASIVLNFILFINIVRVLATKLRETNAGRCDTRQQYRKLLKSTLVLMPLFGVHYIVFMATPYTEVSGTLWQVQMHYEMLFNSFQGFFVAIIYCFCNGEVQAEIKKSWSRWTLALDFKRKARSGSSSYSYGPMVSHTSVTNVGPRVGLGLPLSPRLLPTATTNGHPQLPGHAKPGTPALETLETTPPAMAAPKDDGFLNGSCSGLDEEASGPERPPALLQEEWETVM
# Experimental: SaOS-2 B10 cells were maintained in RPMI1640 medium supplemented with 10% fetal bovine serum (FBS) and 2 mM glutamine at 37° C. in a humidified atmosphere of 5% CO2 in air. The medium was changed every three or four days, and the cells were subcultured every week by trypsinization.
# SaOs-2 B10 cells were maintained for four days after they had reached confluence. The medium was replaced with 5% FBS […] medium and incubated for 2 hrs at room temperature with 10×10^4 cpm mono-^125 -I-[Nle^8,18,Tyr^34 (3-I^125)]bPTH1-34 NH2 in the presence or absence of a competing tested PTH agonist. The cells were washed four times with ice-cold PBS and lysed with 0.1M NaOH, and the radioactivity associated with the cells was counted in a scintillation counter. Synthesis of the radiolabelled [Nle8,18. Tyr^34 (3-I^125)]bPTH1-34 NH2 was carried out as described in Goldman M E et al., Endocrinology, 1988, 123, 1468-1475.
# The binding assay was conducted on Analogs I-IV and Analog V (i.e., [Nle^8, Nle^18, Tyr^34 ]bPTH1-34 NH2).
# [2] = test system: adenylate cyclase in SaOS-2 B10 cells; test: Adenylate cyclase activity (cyclic AMP) in SaOS-2 B10 cells; format: cell-based, human; settings: 1 mM IBMX, 5 min incubation with analog, read-out: EC50 (half maximal stimulation of adenylate cyclase)
# Experimental: The adenylate cyclase activity induced by each of Analogs I-V was also measured in SaOS-2 B10 cells as described previously (Rodan et al. 1983 J. Clin. Invest. 72;1511; Goldman et al. 1988 Endocrinology 123, 1468). Confluent SaOS-2 B10 cells in 24 wells plates were incubated 0.5 μCi[^3 H]adenine (26.9 Ci/mmol, New England Nuclear, Boston, Mass.) in fresh medium at 37° C. for 2 hrs, and washed twice with Hank's solution. The cells were treated with 1 mM IBMX [isobutylmethylxanthine, Sigma, St. Louis, Mo.] in fresh medium for 15 min, and a tested PTH analog was added to the medium to incubate for 5 min. The reaction was stopped by the addition of 1.2M TCA followed by sample neutralization with 4N KOH. Cyclic AMP was isolated by the two-column chromatographic method (see Salomon et al. 1974 Anal. Biochem. 58;541). The radioactivity was counted in a scintillation counter (Liquid scintillation counter 2200CA, PACKARD, Downers Grove, Ill.).
IC50 [1],EC50 [2],SMILES
1.5 nM,2 nM,"CCCC[C@H](NC(=O)[C@H](CO)NC(=O)[C@H](CO)NC(=O)[C@H](CC(C)C)NC(=O)[C@H](Cc1c[nH]cn1)NC(=O)[C@H](CCCCN)NC(=O)CNC(=O)[C@H](CC(C)C)NC(=O)[C@H](CC(N)=O)NC(=O)[C@H](Cc1c[nH]cn1)NC(=O)[C@H](CCCC)NC(=O)[C@H](Cc1ccccc1)NC(=O)[C@H](CCC(N)=O)NC(=O)[C@@H](NC(=O)[C@H](CCC(=O)O)NC(=O)[C@H](CO)NC(=O)[C@@H](NC(=O)[C@H](C)N)C(C)C)[C@@H](C)CC)C(=O)N[C@@H](CCC(=O)O)C(=O)N[C@@H](CCCNC(=N)N)C(=O)N[C@H](C(=O)N[C@@H](CCC(=O)O)C(=O)N[C@@H](Cc1c[nH]c2ccccc12)C(=O)N[C@@H](CC(C)C)C(=O)N[C@@H](CCCNC(=N)N)C(=O)N[C@@H](CCCCN)C(=O)N[C@@H](CCCCN)C(=O)N[C@@H](CC(C)C)C(=O)N[C@@H](CCC(N)=O)C(=O)N[C@@H](CC(=O)O)C(=O)N[C@H](C(=O)N[C@@H](Cc1c[nH]cn1)C(=O)N[C@@H](CC(N)=O)C(=O)N[C@@H](Cc1ccc(O)cc1)C(N)=O)C(C)C)C(C)C [Analog V, [Nle^8, Nle^18, Tyr^34]bPTH1-34 NH2, reference compound] (H-AVSEIQF[Nle]HNLGKHLSS[Nle]ERVEWLRKKLQDVHNY-NH2; N-terminus assumed)"
0.6 nM,2 nM,"CCCC[C@H](NC(=O)[C@H](CO)NC(=O)[C@H](CO)NC(=O)[C@H](CC(C)C)NC(=O)[C@H](Cc1c[nH]cn1)NC(=O)[C@H](CCCCN)NC(=O)CNC(=O)[C@H](CC(C)C)NC(=O)[C@H](CC(N)=O)NC(=O)[C@H](Cc1c[nH]cn1)NC(=O)[C@H](CCCC)NC(=O)[C@H](Cc1ccccc1)NC(=O)[C@H](CCC(N)=O)NC(=O)[C@@H](NC(=O)[C@H](CCC(=O)O)NC(=O)[C@H](CO)NC(=O)[C@@H](NC(=O)[C@H](C)N)C(C)C)[C@@H](C)CC)C(=O)N[C@@H](CCCNC(=N)N)C(=O)N[C@@H](CCCNC(=N)N)C(=O)N[C@H](C(=O)N[C@@H](CCC(=O)O)C(=O)N[C@@H](Cc1c[nH]c2ccccc12)C(=O)N[C@@H](CC(C)C)C(=O)N[C@@H](CCCNC(=N)N)C(=O)N[C@@H](CCCCN)C(=O)N[C@@H](CCCCN)C(=O)N[C@@H](CC(C)C)C(=O)N[C@@H](CCC(N)=O)C(=O)N[C@@H](CC(=O)O)C(=O)N[C@H](C(=O)N[C@@H](Cc1c[nH]cn1)C(=O)N[C@@H](CC(N)=O)C(=O)N[C@@H](Cc1ccc(O)cc1)C(N)=O)C(C)C)C(C)C [Analog II, [Nle^8,18,Arg^19,Tyr^34]bPTH1-34 NH2] (H-AVSEIQF[Nle]HNLGKHLSS[Nle]RRVEWLRKKLQDVHNY-NH2; N-terminus assumed)"

# More lines, now with the values behind:
SMILES,IC50 [1],EC50 [2]
"CCCC[C@H](NC(=O)[C@H](CO)NC(=O)[C@H](CO)NC(=O)[C@H](CC(C)C)NC(=O)[C@H](Cc1c[nH]cn1)NC(=O)[C@H](CCCCN)NC(=O)CNC(=O)[C@H](CC(C)C)NC(=O)[C@H](CC(N)=O)NC(=O)[C@H](Cc1c[nH]cn1)NC(=O)[C@H](CCCC)NC(=O)[C@H](Cc1ccccc1)NC(=O)[C@H](CCC(N)=O)NC(=O)[C@@H](NC(=O)[C@H](CCC(=O)O)NC(=O)[C@H](CO)NC(=O)[C@@H](NC(=O)[C@H](C)N)C(C)C)[C@@H](C)CC)C(=O)N[C@@H](CCC(=O)O)C(=O)N[C@@H](CCCNC(=N)N)C(=O)N[C@@H](CCCNC(=N)N)C(=O)N[C@@H](CCC(=O)O)C(=O)N[C@@H](Cc1c[nH]c2ccccc12)C(=O)N[C@@H](CC(C)C)C(=O)N[C@@H](CCCNC(=N)N)C(=O)N[C@@H](CCCCN)C(=O)N[C@@H](CCCCN)C(=O)N[C@@H](CC(C)C)C(=O)N[C@@H](CCC(N)=O)C(=O)N[C@@H](CC(=O)O)C(=O)N[C@H](C(=O)N[C@@H](Cc1c[nH]cn1)C(=O)N[C@@H](CC(N)=O)C(=O)N[C@@H](Cc1ccc(O)cc1)C(N)=O)C(C)C [Analog III, [Nle^8,18,Arg^21,Tyr^34]bPTH1-34 NH2] (H-AVSEIQF[Nle]HNLGKHLSS[Nle]ERREWLRKKLQDVHNY-NH2; N-terminus assumed)",0.3 nM,0.2 nM
"CCCC[C@H](NC(=O)[C@H](CO)NC(=O)[C@H](CO)NC(=O)[C@H](CC(C)C)NC(=O)[C@H](Cc1c[nH]cn1)NC(=O)[C@H](CCCCN)NC(=O)CNC(=O)[C@H](CC(C)C)NC(=O)[C@H](CC(N)=O)NC(=O)[C@H](Cc1c[nH]cn1)NC(=O)[C@H](CCCC)NC(=O)[C@H](Cc1ccccc1)NC(=O)[C@H](CCC(N)=O)NC(=O)[C@@H](NC(=O)[C@H](CCC(=O)O)NC(=O)[C@H](CO)NC(=O)[C@@H](NC(=O)[C@H](C)N)C(C)C)[C@@H](C)CC)C(=O)N[C@@H](CCC(=O)O)C(=O)N[C@@H](CCCNC(=N)N)C(=O)N[C@H](C(=O)N[C@@H](Cc1ccccc1)C(=O)N[C@@H](Cc1c[nH]c2ccccc12)C(=O)N[C@@H](CC(C)C)C(=O)N[C@@H](CCCNC(=N)N)C(=O)N[C@@H](CCCCN)C(=O)N[C@@H](CCCCN)C(=O)N[C@@H](CC(C)C)C(=O)N[C@@H](CCC(N)=O)C(=O)N[C@@H](CC(=O)O)C(=O)N[C@H](C(=O)N[C@@H](Cc1c[nH]cn1)C(=O)N[C@@H](CC(N)=O)C(=O)N[C@@H](Cc1ccc(O)cc1)C(N)=O)C(C)C)C(C)C [Analog I, [Nle^8,18,Phe^22,Tyr^34]bPTH1-34 NH2] (H-AVSEIQF[Nle]HNLGKHLSS[Nle]ERVFWLRKKLQDVHNY-NH2; N-terminus assumed)",1.5 nM,1.5 nM
"CCCC[C@H](NC(=O)[C@H](CO)NC(=O)[C@H](CO)NC(=O)[C@H](CC(C)C)NC(=O)[C@H](Cc1c[nH]cn1)NC(=O)[C@H](CCCCN)NC(=O)CNC(=O)[C@H](CC(C)C)NC(=O)[C@H](CC(N)=O)NC(=O)[C@H](Cc1c[nH]cn1)NC(=O)[C@H](CCCC)NC(=O)[C@H](Cc1ccccc1)NC(=O)[C@H](CCC(N)=O)NC(=O)[C@@H](NC(=O)[C@H](CCC(=O)O)NC(=O)[C@H](CO)NC(=O)[C@@H](NC(=O)[C@H](C)N)C(C)C)[C@@H](C)CC)C(=O)N[C@@H](CCCNC(=N)N)C(=O)N[C@@H](CCCNC(=N)N)C(=O)N[C@@H](CCCNC(=N)N)C(=O)N[C@@H](CCC(=O)O)C(=O)N[C@@H](Cc1c[nH]c2ccccc12)C(=O)N[C@@H](CC(C)C)C(=O)N[C@@H](CCCNC(=N)N)C(=O)N[C@@H](CCCCN)C(=O)N[C@@H](CCCCN)C(=O)N[C@@H](CC(C)C)C(=O)N[C@@H](CCC(N)=O)C(=O)N[C@@H](CC(=O)O)C(=O)N[C@H](C(=O)N[C@@H](Cc1c[nH]cn1)C(=O)N[C@@H](CC(N)=O)C(=O)N[C@@H](Cc1ccc(O)cc1)C(N)=O)C(C)C [Analog IV, [Nle^8,18,Arg^19,21,Tyr^34]bPTH1-34 NH2] (H-AVSEIQF[Nle]HNLGKHLSS[Nle]RRREWLRKKLQDVHNY-NH2; N-terminus assumed)",0.3 nM,0.5 nM
